Results published in ChEMBL document CHEMBL5576083, “Structure-Based Design and Synthesis of Covalent Inhibitors for Deubiquitinase and Acetyltransferase ChlaDUB1 of Chlamydia trachomatis” (J Med Chem, 2024).
In brackets after ≈: the same amount, converted by molar mass. Activity calls are given as the source filed them. The calls are words filed in the database; no cut-off is given here.

Assays:
[1] = biological target: T1, Ubiquitin carboxyl-terminal hydrolase 28 (Homo sapiens) (UniProt Q96RU2); assay: Inhibition of human USP28 (149 to 707 residues) expressed in Escherichia coli Rosetta 2 (DE3) cells using Ub-Rh110Gly as fluorogenic substrate at 40 uM preincubated for 1 hr followed by substrate addition by plate reader analysis
T1 sequence (whole entry): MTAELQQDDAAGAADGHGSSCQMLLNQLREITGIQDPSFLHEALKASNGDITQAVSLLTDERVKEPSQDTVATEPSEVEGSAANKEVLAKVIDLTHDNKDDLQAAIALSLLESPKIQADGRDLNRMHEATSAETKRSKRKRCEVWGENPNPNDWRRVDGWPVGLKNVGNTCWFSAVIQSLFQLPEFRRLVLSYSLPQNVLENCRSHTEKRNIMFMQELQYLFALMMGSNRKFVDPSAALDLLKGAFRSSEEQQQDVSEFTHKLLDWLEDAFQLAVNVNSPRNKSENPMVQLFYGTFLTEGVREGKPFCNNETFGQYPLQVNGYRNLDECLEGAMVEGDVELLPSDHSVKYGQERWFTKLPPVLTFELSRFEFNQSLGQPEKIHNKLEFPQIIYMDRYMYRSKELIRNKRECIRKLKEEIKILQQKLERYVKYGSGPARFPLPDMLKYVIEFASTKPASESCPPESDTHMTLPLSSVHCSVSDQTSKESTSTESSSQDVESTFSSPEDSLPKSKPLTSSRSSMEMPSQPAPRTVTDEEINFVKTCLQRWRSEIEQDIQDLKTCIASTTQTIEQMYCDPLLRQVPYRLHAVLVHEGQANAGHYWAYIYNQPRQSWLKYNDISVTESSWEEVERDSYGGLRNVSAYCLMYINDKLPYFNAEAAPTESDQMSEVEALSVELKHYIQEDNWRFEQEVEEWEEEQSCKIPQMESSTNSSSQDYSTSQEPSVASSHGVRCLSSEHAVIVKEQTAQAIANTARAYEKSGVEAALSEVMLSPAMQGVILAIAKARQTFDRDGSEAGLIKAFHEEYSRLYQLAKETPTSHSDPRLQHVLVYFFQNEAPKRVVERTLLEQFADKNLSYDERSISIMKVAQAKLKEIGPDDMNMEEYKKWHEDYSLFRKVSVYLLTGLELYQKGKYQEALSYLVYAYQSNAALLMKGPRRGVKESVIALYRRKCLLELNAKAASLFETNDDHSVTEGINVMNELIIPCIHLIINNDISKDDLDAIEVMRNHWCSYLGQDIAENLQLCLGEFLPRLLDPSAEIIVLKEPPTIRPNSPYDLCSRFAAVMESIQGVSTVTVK

Chlamydia trachomatis [2] = assay: Antimicrobial activity against Chlamydia trachomatis serovar L2 infected in human HeLa cells assessed as reduction in inclusion area at 1.56 ug/ml measured after 24 hrs of post-infection by microscopic analysis; assay type: functional; conditions: dose 1.56 µg/ml
Chlamydia trachomatis [3] = assay: Antimicrobial activity against Chlamydia trachomatis serovar L2 infected in human HeLa cells assessed as reduction in inclusion forming unit at 12.5 ug/ml measured after 8 hrs of post-infection by immunofluorescence based microscopic analysis; assay type: functional, organism-based; conditions: dose 12.5 µg/ml
Chlamydia trachomatis [4] = assay: Anti-chlamydial activity against Chlamydia trachomatis serovar L2 infected in human HEp-2 cells assessed as inhibition of chlamydial inclusion incubated for 24 hrs by Alexa488/DAPI staining based immunofluorescence assay; assay type: functional, organism-based; conditions: serovar L2, HEp-2, 24 h
Chlamydia trachomatis [5] = assay: Antimicrobial activity against Chlamydia trachomatis serovar L2 infected in human HeLa cells assessed as reduction in inclusion circumference at 12.5 ug/ml measured after 24 hrs of post-infection by microscopic analysis (reference value: 31.72 micrometer); assay type: functional; conditions: dose 12.5 µg/ml
[6] = biological target: Ubiquitin carboxyl-terminal hydrolase 7 (Homo sapiens) (UniProt Q93009); assay: Inhibition of 6His-tagged human USP7 using Ub-Rh110Gly as fluorogenic substrate at 40 uM preincubated for 1 hr followed by substrate addition by plate reader analysis
HEp-2 = assay: Cytotoxicity against human HEp-2 cells at 4 to 128 ug/ml incubated for 20 hrs by […] assay; assay type: toxicity, cell-based; conditions: hep-2, 20 h, dose 4-128 µg/ml
Chlamydia trachomatis [7] = assay: Antimicrobial activity against Chlamydia trachomatis serovar L2 infected in human HeLa cells assessed as reduction in microbial progeny at 3.13 ug/ml measured after 24 hrs of post-infection by immunofluorescence analysis; assay type: functional; design: scale not given: the % may be the effect or the level left; conditions: dose 3.13 µg/ml
Chlamydia trachomatis [8] = assay: Antimicrobial activity against Chlamydia trachomatis serovar L2 infected in human HeLa cells assessed as reduction in microbial progeny at 6.25 ug/ml measured after 24 hrs of post-infection by immunofluorescence analysis; assay type: functional; design: scale not given: the % may be the effect or the level left; conditions: dose 6.25 µg/ml
Chlamydia trachomatis [9] = assay: Antimicrobial activity against Chlamydia trachomatis serovar L2 infected in human HeLa cells assessed as reduction in microbial progeny at 12.5 ug/ml measured after 24 hrs of post-infection by immunofluorescence analysis; assay type: functional; design: scale not given: the % may be the effect or the level left; conditions: dose 12.5 µg/ml
Chlamydia trachomatis [10] = assay: Antimicrobial activity against Chlamydia trachomatis serovar L2 infected in human HeLa cells assessed as reduction in microbial progeny at 12.5 ug/ml measured after 48 hrs of post-infection by immunofluorescence analysis; assay type: functional; design: scale not given: the % may be the effect or the level left; conditions: dose 12.5 µg/ml
Chlamydia trachomatis [11] = assay: Antimicrobial activity against Chlamydia trachomatis serovar L2 infected in human HeLa cells assessed as reduction in inclusion area at 6.25 ug/ml measured after 24 hrs of post-infection by microscopic analysis; assay type: functional; conditions: dose 6.25 µg/ml
Chlamydia trachomatis [12] = assay: Antimicrobial activity against Chlamydia trachomatis serovar L2 infected in human HEp-2 cells assessed as fold change in inclusion forming unit at 1.56 to 12.5 ug/ml measured at 8 to 48 hrs of post-infection by immunofluorescence based microscopic analysis; assay type: functional; conditions: dose 1.56-12.5 µg/ml; time 8-48 hrs
Chlamydia trachomatis [13] = assay: Antimicrobial activity against Chlamydia trachomatis serovar L2 infected in human HeLa cells assessed as reduction in inclusion area at 12.5 ug/ml measured after 24 hrs of post-infection by microscopic analysis; assay type: functional; conditions: dose 12.5 µg/ml
Chlamydia trachomatis [14] = assay: Antimicrobial activity against Chlamydia trachomatis serovar L2 infected in human HeLa cells assessed as inclusion forming unit at 1.56 to 6.25 ug/ml measured after 24 hrs of post-infection by immunofluorescence based microscopic analysis; assay type: functional; conditions: dose 1.56-6.25 µg/ml
[15] = Covalent inhibition of C-terminal 6His-tagged Chlamydia trachomatis DUB1 (130 to 401 residues) expressed in Escherichia coli Rosetta 2 (DE3) cells using Ub-Rh110Gly as fluorogenic substrate preincubated for 1 hr followed by substrate addition by plate reader analysis
Chlamydia trachomatis [16] = assay: Antimicrobial activity against Chlamydia trachomatis serovar L2 infected in human HeLa cells assessed as reduction in inclusion circumference at 6.25 ug/ml measured after 24 hrs of post-infection by microscopic analysis (reference value: 31.72 micrometer); assay type: functional; conditions: dose 6.25 µg/ml
Chlamydia trachomatis [17] = assay: Anti-chlamydial activity against Chlamydia trachomatis serovar L2 infected in human HEp-2 cells assessed as fold change in inhibition of chlamydial inclusion incubated for 24 hrs by Alexa488/DAPI staining based immunofluorescence assay relative to doxycycline; assay type: functional
Chlamydia trachomatis [18] = assay: Antimicrobial activity against Chlamydia trachomatis serovar L2 infected in human HeLa cells assessed as change in inclusion morphology at 1.56 to 12.5 ug/ml measured after 24 hrs of post-infection by immunofluorescence based microscopic analysis; assay type: functional, organism-based; conditions: dose 1.56-12.5 µg/ml

Chain of Ubiquitin carboxyl-terminal hydrolase 7 (Homo sapiens) (Q93009 whole entry, looked up): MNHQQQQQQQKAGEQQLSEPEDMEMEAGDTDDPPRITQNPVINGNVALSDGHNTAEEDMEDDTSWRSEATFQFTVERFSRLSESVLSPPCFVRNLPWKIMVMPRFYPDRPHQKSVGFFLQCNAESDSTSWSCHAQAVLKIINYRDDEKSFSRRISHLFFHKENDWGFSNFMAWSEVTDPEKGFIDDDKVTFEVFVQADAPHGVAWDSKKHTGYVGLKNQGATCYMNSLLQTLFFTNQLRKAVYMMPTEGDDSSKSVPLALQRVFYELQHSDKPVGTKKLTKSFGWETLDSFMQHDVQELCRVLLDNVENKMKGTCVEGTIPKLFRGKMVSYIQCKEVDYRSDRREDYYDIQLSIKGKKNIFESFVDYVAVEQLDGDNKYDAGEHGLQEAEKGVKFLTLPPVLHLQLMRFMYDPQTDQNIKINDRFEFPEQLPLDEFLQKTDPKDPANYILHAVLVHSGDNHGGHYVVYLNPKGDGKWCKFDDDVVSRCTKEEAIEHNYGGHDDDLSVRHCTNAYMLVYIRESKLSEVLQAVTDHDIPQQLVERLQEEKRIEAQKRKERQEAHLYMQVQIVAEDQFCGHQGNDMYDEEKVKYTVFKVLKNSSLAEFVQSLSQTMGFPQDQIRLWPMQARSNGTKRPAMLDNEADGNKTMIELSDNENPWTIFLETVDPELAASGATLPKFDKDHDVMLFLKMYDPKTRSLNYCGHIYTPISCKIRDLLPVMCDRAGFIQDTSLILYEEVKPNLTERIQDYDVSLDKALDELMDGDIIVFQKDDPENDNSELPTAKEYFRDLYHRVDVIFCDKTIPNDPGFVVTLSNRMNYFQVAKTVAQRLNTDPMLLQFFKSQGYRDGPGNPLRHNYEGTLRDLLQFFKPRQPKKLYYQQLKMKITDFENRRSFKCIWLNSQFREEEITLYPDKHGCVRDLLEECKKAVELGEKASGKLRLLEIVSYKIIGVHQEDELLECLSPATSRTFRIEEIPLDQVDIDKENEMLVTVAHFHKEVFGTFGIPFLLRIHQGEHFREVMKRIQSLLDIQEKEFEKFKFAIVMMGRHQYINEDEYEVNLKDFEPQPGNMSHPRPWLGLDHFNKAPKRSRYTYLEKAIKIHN

SMILES: N#Cc1ncc(C(=O)NCc2ccc(C(=O)NC34CC5CC(CC(C5)C3)C4)cc2)cn1
- inhibition [1]: inactive
- Activity (Chlamydia trachomatis [2]): 70.68 um2
- Activity (Chlamydia trachomatis [3]): Active
- IC50 (Chlamydia trachomatis [4]): 8.52 µg/mL (≈ 20.5 µM)
- Activity (Chlamydia trachomatis [5]): 14.75 um
- inhibition [6]: inactive
- Activity (HEp-2): Toxic
- Activity (Chlamydia trachomatis [7]): 45.5%
- Activity (Chlamydia trachomatis [8]): 66.5%
- Activity (Chlamydia trachomatis [9]): 80%
- Activity (Chlamydia trachomatis [10]): 98.5%
- Activity (Chlamydia trachomatis [11]): 47.16 um2
- fold change (FC) (Chlamydia trachomatis [12]): 2
- Activity (Chlamydia trachomatis [13]): 15.38 um2
- Activity (Chlamydia trachomatis [14]): 1.075 10^7IFU/ml
- IC50 [15]: 7.7 µM
- pIC50 [15]: 5.11
- Activity (Chlamydia trachomatis [16]): 25.98 um
- fold change (FC) (Chlamydia trachomatis [17]): 200
- Activity (Chlamydia trachomatis [18]): inactive
